In patent US11191811B2, “Osteocalcin as a treatment for frailty associated with aging” (THE TRUSTEES OF COLUMBIA UNIVERSITY IN THE CITY OF NEW YORK, priority 2014, dated 2021):
Where two headings read alike, the source gives them in different places.

Experiments:
gamma-carboxylase = target: T1, gamma-carboxylase (Homo sapiens, UniProt P38435); conditions: thiol-specific inhibitors; cited from earlier work
T1 sequence (P38435 1-758): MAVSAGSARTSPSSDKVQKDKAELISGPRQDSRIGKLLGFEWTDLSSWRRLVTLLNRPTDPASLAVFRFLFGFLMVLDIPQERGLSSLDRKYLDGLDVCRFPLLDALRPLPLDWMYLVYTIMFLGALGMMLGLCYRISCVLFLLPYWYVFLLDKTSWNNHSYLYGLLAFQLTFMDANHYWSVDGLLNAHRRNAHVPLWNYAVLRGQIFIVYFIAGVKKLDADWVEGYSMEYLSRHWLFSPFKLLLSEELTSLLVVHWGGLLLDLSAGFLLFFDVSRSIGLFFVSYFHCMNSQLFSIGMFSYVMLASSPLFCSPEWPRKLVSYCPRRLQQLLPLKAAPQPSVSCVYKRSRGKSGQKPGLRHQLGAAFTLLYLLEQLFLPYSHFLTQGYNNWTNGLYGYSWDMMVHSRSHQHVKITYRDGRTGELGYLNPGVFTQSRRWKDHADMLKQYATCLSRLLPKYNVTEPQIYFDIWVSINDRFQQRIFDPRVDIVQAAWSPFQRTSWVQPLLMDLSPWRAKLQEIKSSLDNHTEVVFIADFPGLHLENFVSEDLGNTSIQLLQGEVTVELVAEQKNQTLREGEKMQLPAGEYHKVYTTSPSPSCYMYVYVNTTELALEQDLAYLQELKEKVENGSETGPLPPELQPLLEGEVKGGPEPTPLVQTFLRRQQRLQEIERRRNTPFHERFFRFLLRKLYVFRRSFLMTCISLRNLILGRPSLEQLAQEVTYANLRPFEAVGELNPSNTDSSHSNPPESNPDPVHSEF

osteoblasts = assay: Gene expression in osteoblasts treated with IL-6; type: cell-based
Source text: It was observed that treating osteoblasts with IL-6 decreased expression of Osteocalcin, thereby explaining why the circulating levels of total (carboxylated and uncarboxylated forms) osteocalcin are […] in Il6−/− mice. More importantly, IL-6 increased the expression in osteoblasts of Rankl, a cytokine that favors osteoclast differentiation and decreased the expression of Osteoprotegerin (Opg), a decoy receptor for Rankl and an inhibitor of bone resorption (Karsenty and Wagner, 2002, Developmental Cell 2:389-406; Palmqvist et al., 2002, J. Immunol. 169:3353-3362). This observation is consistent with the fact that the circulating levels of the undercarboxylated and active form of osteocalcin are decreased in Il6−/− mice (FIG. 29E). The regulation of Il-6 expression by osteocalcin signaling in myofibers and of bone resorption by IL-6 also explains why circulating levels of CTX, a biomarker of bone resorption, were low after exercise in Il6−/− and Gprc6aMck−/− mice (FIG. 29G-H). These experiments reveal the existence of a feed-forward regulation between osteocalcin production in bone and IL-6 synthesis in muscle that is necessary for the increase in muscle function during exercise. This regulatory loop should synergize with the ability of IL-6 to favor liver gluconeogenesis and lipolysis, since these two other functions of IL-6 increase the pool of nutrients made available for myofibers during exercise.
Serum osteocalcin, PINP, CTX, and insulin levels were measured using ELISA assays. Blood glucose level was measured using an Accu-Check glucometer. Urine 3-MHT was measured as previously described (Aranibar et al., 2011, Anal. Biochem. 410:84-91). Determination of cAMP accumulation was performed using a commercial kit (R&D). For gene expression, 1 μg of total RNA was reverse transcribed into cDNA. qPCR analyses were performed using a SYBER green master mix (Applied Biosciences) and a CFX-Connect real time PCR (Bio-Rad). Relative expression levels of each gene were normalized to that of Hprt or Gapdh. For in situ hybridization, muscle was frozen in liquid N2-cooled methylbutane. Samples were sectioned at 10 μm using a cryostat. In situ hybridization was performed with a DIG-labeled riboprobe as previously described (Oury et al., 2011, Cell 144:796-809).

Row | Compound | gamma-carboxylase enzyme activity (gamma-carboxylase) | expression of Osteocalcin in osteoblasts (osteoblasts) | expression of Osteoprotegerin (Opg) in osteoblasts (osteoblasts) | expression of Rankl in osteoblasts (osteoblasts) | expression of Osteocalcin in osteoblasts (osteoblasts; listed as interleukin-6) | expression of Rankl in osteoblasts (osteoblasts; listed as interleukin-6)
1 | CCN1C(=O)C=CC1=O [N-ethylmaleimide] | inhibited | – | – | – | – | –
2 | O=C([O-])c1cc[c]([Hg][OH])cc1 [pHMB, p-hydroxymurcuribenzoate] | inhibited | – | – | – | – | –
3 | IL-6: interleukin-6 (IL-6), a myokine whose circulating levels raise during exercise | – | decreased | decreased | increased | inhibits | stimulating
